For one compound, Kd results are on record in PMC3462495 (2012).

The target in this test is p90 ribosomal S6 kinase 2 (RSK2), N-terminal kinase domain (mRSK2NTKD) (Mus musculus, UniProt P18654). Description: ITC. It counts as binding.

Each structure is given as a SMILES string.

Sequence of p90 ribosomal S6 kinase 2 (RSK2), N-terminal kinase domain (mRSK2NTKD) (P18654 45-346): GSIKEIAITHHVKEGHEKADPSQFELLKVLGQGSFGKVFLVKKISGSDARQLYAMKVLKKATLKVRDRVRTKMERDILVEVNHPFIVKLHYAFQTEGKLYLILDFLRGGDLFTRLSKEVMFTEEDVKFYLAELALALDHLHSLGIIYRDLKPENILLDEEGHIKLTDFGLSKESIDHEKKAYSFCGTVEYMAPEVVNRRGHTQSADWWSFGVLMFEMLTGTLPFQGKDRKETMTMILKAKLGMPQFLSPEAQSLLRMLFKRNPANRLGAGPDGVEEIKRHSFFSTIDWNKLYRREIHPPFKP

What is called Kd is the equilibrium constant for the complex coming apart. Read a low Kd as higher affinity. Consider `Nc1ncnc2c1ncn2[C@@H]1O[C@H](COP(=O)(O)OP(=O)(O)NP(=O)(O)O)[C@@H](O)[C@H]1O` [AMP-PNP], for which the Kd came to 50 µM.
